# pIC50: −log10 of the molar value.
# Experiments:
# intracellular oxygen = assay: Intracellular oxygen with hypoxia probe MAR, HepG2 cells; format: cell-based, human; conditions: hypoxic conditions, 6 hours, 500 nM MAR (FIG. 3D)
# Method: Since a decrease in mitochondrial respiration means an increase in the amount of intracellular oxygen, it was evaluated whether the amount of intracellular oxygen increased using MAR, an azo-based hypoxia probe that produces fluorescence under hypoxic conditions. Under hypoxic states, HepG2 cells were cultured with LW1564 (compound 21-3) for 6 hours, stained with 500 nM MAR according to the manufacturer's instructions (Chou, T. C. Theoretical basis, experimental design, and computerized simulation of synergism and antagonism in drug combination studies. Pharmacol. Rev. 58, 621-681 (2006)), and analyzed with an IncuCyte ZOOM® system (Essen BioScience, MI, USA).
# [1] = test system: GLUT1, PDK1 and VEGF mRNA; assay: qPCR of HIF-1 target genes in HepG2 cells; format: cell-based, human; conditions: hypoxia, HepG2 cells (FIG. 2E)
# Method: Next, mRNA levels of HIF-1 target genes GLUT1, PDK1 and VEGF were measured. The primer sequences were Fwd 5′-TTTGGCTACAACACTGGAGTC-3′ (SEQ ID NO: 1) and Rev 5′-CATGCCCCCAACAGAAAAGAT-3′ (SEQ ID NO: 2) for GLUT1; Fwd 5′-CAGGACAGCCAATACAAGTGG-3′ (SEQ ID NO: 3) and Rev 5′-CATTACCCAGCGTGACATGAA-3′ (SEQ ID NO: 4) for PDK1; Fwd 5′-CCTTGCTGCTCTACCTCCAC-3′ (SEQ ID NO: 5) and Rev 5′-ATGATTCTGCCCTCCTCCTT-3′ (SEQ ID NO: 6) for VEGFA; and Fwd 5′-CATAGGAAGCTGGGAGCAAG-3′ (SEQ ID NO: 7) and Rev 5′-GCCCTCCAATCAGTCTTCTG-3′ (SEQ ID NO: 8) for RPL13A. […] Taken together, it was identified that LW1564 (compound 21-3) suppressed HIF-1α accumulation through stimulated proteasome degradation, thereby reducing the mRNA expression of the target gene.
# ATP production = ATP production and ATP content (ENLITEN ATP assay kit), HepG2 cells; format: cell-based, human
# Method: Next, the effect of mitochondrial respiration on ATP production by oxidative phosphorylation was evaluated by comparing the amount of ATP produced by glycolysis decomposition and mitochondrial respiration in the presence of LW1564 (compound 21-3). ATP content was determined as described in “Chou, T. C. Theoretical basis, experimental design, and computerized simulation of synergism and antagonism in drug combination studies. Pharmacol. Rev. 58, 621-681 (2006).” After HepG2 cells were seeded and incubated with LW1564 (compound 21-3) for 6 hours, ATP content was measured using an ENLITEN® ATP assay kit (Promega, Madison, WI, USA) according to the manufacturer's instructions. Under normoxic conditions, HepG2 cells gained 47% of ATP by mitochondrial respiration and 53% by glycolysis decomposition. […] Compensatory upregulation of this degradation in response to suppression of oxidative phosphorylation occurred by AMPK activation, which was induced by a high AMP/ATP ratio.
# HIF-1α activity = assay: HRE-luciferase assay in HepG2 cells; format: cell-based; conditions: Homo sapiens; HepG2 cells (FIG. 2A)
# Method: In the presence of oxygen, when the proline residue of the oxygen-dependent degradation (ODD) domain of HIF-1α is hydroxylated by prolyl hydroxylase (PHD), HIF-1α degradation is promoted by binding to Von Hippel-Lindau syndrome (VHL) associated with VCB-Cul2 E3 ligase that induces proteolysis. […] First, HIF-1α activity was investigated using HRE-luciferase assay in HepG2 cells treated with LW1564 (compound 21-3). The HRE-luciferase reporter assay was performed as previously described using the luciferase assay system (Promega, Madison, WI, USA) according to the manufacturer's instructions (Naik, R. et al. Synthesis and Structure-Activity Relationship of (E)Phenoxyacrylic Amide Derivatives as Hypoxia-Inducible Factor (HIF) la Inhibitors. J. Med. Chem. 55, 10564-1057 (2012)). Luciferase activity was measured using a Victor X light luminescence reader (PerkinElmer, Boston, MA, USA).
# HIF-1α mRNA = assay: qPCR of HIF-1α mRNA; format: cell-based, human; conditions: qPCR (FIG. 2C)
# From the text: In addition, the amount of HIF-1α mRNA in LW1564-treated cells was investigated by a qPCR method. Total RNA was isolated using TRIzol reagent (Invitrogen), and cDNA was synthesized using TOPscript™ DryMIX (Enzynomics, Seoul, Korea). The HIF1A primer sequences are Fwd 5′-CTGACCCTGCACTCAATCAAG-3′ and Rev 5′-TGGGACTATTAGGCTCAGGTG-3.
structure (smiles),measurement,setting,value
"COc1cc2c(cc1OC)CN(C(=O)C13CC4CC(C1)CC(c1ccc(OCC(=O)N5CCN(Cc6ccc(C(F)(F)F)cc6)CC5)cc1)(C4)C3)CC2 [Compound 21c, 2-(4-(3-(6,7-Dimethoxy-1,2,3,4-tetrahydroisoquinoline-2-carbonyl)adamantan-1-yl)phenoxy)-1-(4-(4-(trifluoromethyl)benzyl)piperazin-1-yl) ethanone]",MAR fluorescence (hypoxia probe),intracellular oxygen,significantly reduced fluorescence
same,"mRNA amount of HIF-1 target genes GLUT1, PDK1 and VEGF",[1],"decreased the mRNA amount of GLUT1, PDK1 and VEGF"
same,glycolysis-derived ATP production,ATP production; HepG2 cells (FIG. 3B),increased
same,"total ATP production, short period of time",ATP production; HepG2 cells (FIG. 3B),slightly decreased total ATP production
same,"intracellular total ATP levels, longer period",ATP production; HepG2 cells (FIG. 3C),significantly decreased intracellular total ATP levels
same,mitochondrial-derived ATP production,"ATP production; HepG2 cells, normoxic, untreated cells 47% of ATP by mitochondrial respiration (FIG. 3B)",16%
same,pIC50,HIF-1α activity,5.92
same,amount of HIF-1α mRNA,HIF-1α mRNA,no change in the amount of HIF-1α mRNA
